pEC50: −log10 of the molar value. Activity calls are given as the source filed them. No cut-off for these calls is given here.
Columns and labels:
[1] = tested on: Cowpox virus; experiment: Antiviral activity against Cowpox virus infected in human HFF cells assessed as reduction of viral replication; format: functional, organism-based
[2] = tested on: Enterovirus; experiment: Antiviral activity against Rhinovirus infected in human HeLa Ohio1 cells assessed as reduction of viral replication; format: functional, organism-based
[3] = tested on: Yellow fever virus; experiment: Antiviral activity against Yellow fever virus infected in african green monkey Vero cells assessed as reduction of viral replication; format: functional, organism-based
[4] = tested on: West Nile virus; experiment: Antiviral activity against West Nile virus infected in african green monkey Vero cells assessed as reduction of viral replication; format: functional, organism-based
[5] = tested on: Dengue virus; experiment: Antiviral activity against Dengue virus infected in african green monkey Vero cells assessed as reduction of viral replication; format: functional, organism-based
[6] = Selectivity index, ratio of CC50 for MDCK cells to EC50 for influenza B virus; format: toxicity, cell-based; settings: dog, read-out: Ratio CC50/EC50
[7] = Selectivity index, ratio of CC50 for human HFF cells to EC50 for Varicella-zoster virus; format: toxicity, cell-based; settings: read-out: Ratio CC50/EC50
[8] = Selectivity index, ratio of CC50 for human HepG2.215 cells to EC50 for Hepatitis B virus; format: toxicity; settings: read-out: Ratio CC50/EC50
[9] = Selectivity index, ratio of CC50 for human HFF cells to EC50 for human cytomegalovirus; format: toxicity, cell-based; settings: read-out: Ratio CC50/EC50
[10] = tested on: Rift Valley fever virus; experiment: Antiviral activity against Rift Valley fever virus infected in african green monkey Vero 76 cells assessed as reduction of viral replication; format: functional, organism-based
[11] = Cytotoxicity against african green monkey Vero cells assessed as concentration required to cause microscopically alternation of cellular morphology; format: cell-based; settings: chlorocebus sabaeus
[12] = Cytotoxicity against human HEL cells assessed as concentration required to cause microscopically alternation of cellular morphology; format: cell-based
[13] = Cytotoxicity against MDCK cells assessed as reduction of cell viability; format: cell-based, Canis lupus familiaris; settings: dog
[14] = tested on: Tacaribe virus; experiment: Antiviral activity against Tacaribe virus infected in african green monkey Vero 76 cells assessed as reduction of viral replication; format: functional, organism-based; settings: Mammarenavirus tacaribeense
[15] = Cytotoxicity against human HepG2.215 cells assessed as reduction of cell viability; format: cell-based, HepG2 2.2.15
[16] = Cytotoxicity against african green monkey CV1 cells assessed as reduction of cell viability; format: cell-based, CV-1; settings: chlorocebus aethiops
[17] = Cytotoxicity against human HFF cells assessed as reduction of cell viability; format: cell-based
[18] = tested on: Influenza B virus; experiment: Antiviral activity against influenza B virus infected in MDCK cells assessed as reduction of viral replication; format: functional, organism-based
[19] = tested on: Human alphaherpesvirus 3; experiment: Antiviral activity against Varicella-zoster virus infected in human HFF cells assessed as reduction of viral replication; format: functional, organism-based; settings: for pEC50: Human alphaherpesvirus 3, HFF
[20] = tested on: Mammalian orthoreovirus 1; experiment: Antiviral activity against Reovirus 1 infected in african green monkey Vero cells assessed as reduction of viral replication; format: functional, organism-based; settings: for pEC50: Mammalian orthoreovirus 1, Vero
[21] = tested on: Measles morbillivirus; experiment: Antiviral activity against Measles virus infected in african green monkey CV1 cells assessed as reduction of viral replication; format: functional, organism-based; settings: CV-1
[22] = tested on: Human respirovirus 3; experiment: Antiviral activity against Human parainfluenzae virus 3 infected in african green monkey Vero cells assessed as reduction of viral replication; format: functional, organism-based; settings: for pEC50: Human respirovirus 3, Vero
[23] = tested on: Hepatitis B virus; experiment: Antiviral activity against Hepatitis B virus infected in human HepG 2.215 cells assessed as reduction of viral replication; format: functional, organism-based; settings: for pEC50: HepG2.2.15
[24] = tested on: Vesicular stomatitis virus; experiment: Antiviral activity against Vesicular stomatitis virus infected in human HEL cells assessed as reduction of viral replication; format: functional, organism-based
[25] = tested on: Vaccinia virus; experiment: Antiviral activity against Vaccinia virus infected in human HEL cells assessed as reduction of viral replication; format: functional, organism-based; settings: Orthopoxvirus vaccinia
[26] = tested on: Cytomegalovirus; experiment: Antiviral activity against human cytomegalovirus infected in human HFF cells assessed as reduction of viral replication; format: functional, organism-based; settings: for pEC50: Human betaherpesvirus 5, HFF
[27] = tested on: Punta Toro virus; experiment: Antiviral activity against Punta Toro virus infected in african green monkey Vero cells assessed as reduction of viral replication; format: functional, organism-based
[28] = tested on: Human immunodeficiency virus 2; experiment: Antiviral activity against HIV2 infected in human CEM cells assessed as reduction of viral replication; format: functional, organism-based; settings: CCRF-CEM
[29] = tested on: Human immunodeficiency virus 1; experiment: Antiviral activity against HIV1 infected in human CEM cells assessed as reduction of viral replication; format: functional, organism-based; settings: CCRF-CEM
[30] = tested on: Influenza A virus; experiment: Antiviral activity against influenza A H3N2 infected in MDCK cells assessed as reduction of viral replication; format: functional, organism-based
[31] = tested on: Feline coronavirus; experiment: Antiviral activity against Feline coronavirus infected in cat CRFK cells assessed as reduction of viral replication; format: functional, organism-based
[32] = tested on: Influenza A virus; experiment: Antiviral activity against influenza A H1N1 infected in MDCK cells assessed as reduction of viral replication; format: functional, organism-based
[33] = tested on: Human alphaherpesvirus 2; experiment: Antiviral activity against HSV2 infected in human HEL cells assessed as reduction of viral replication; format: functional, organism-based
[34] = tested on: Human alphaherpesvirus 1; experiment: Antiviral activity against HSV1 infected in human HEL cells assessed as reduction of viral replication; format: functional, organism-based
[35] = tested on: Sindbis virus; experiment: Antiviral activity against Sindbis virus infected in african green monkey Vero cells assessed as reduction of viral replication; format: functional, organism-based
[36] = tested on: Coxsackievirus B4; experiment: Antiviral activity against Human coxsackievirus B4 infected in african green monkey Vero cells assessed as reduction of viral replication; format: functional, organism-based
[37] = tested on: Human gammaherpesvirus 4; experiment: Antiviral activity against Epstein-Barr virus infected in human HFF cells assessed as reduction of viral replication; format: functional, organism-based
[38] = tested on: Respiratory syncytial virus; experiment: Antiviral activity against Respiratory syncytial virus infected in monkey MA104 cells assessed as reduction of viral replication; format: functional, organism-based
[39] = tested on: unidentified adenovirus; experiment: Antiviral activity against Adenovirus infected in human A549 cells assessed as reduction of viral replication; format: functional, organism-based
[40] = Selectivity index, ratio of CC50 for MDCK cells to EC50 for influenza A virus H5N1; format: toxicity, cell-based; settings: dog, read-out: Ratio CC50/EC50
[41] = Selectivity index, ratio of CC50 for african green monkey CV1 cells to EC50 for Measles virus; format: toxicity, cell-based, CV-1; settings: read-out: Ratio CC50/EC50
[42] = tested on: Influenza A virus; experiment: Antiviral activity against influenza A virus H5N1 infected in MDCK cells assessed as reduction of viral replication; format: functional, organism-based

Nc1ncc(Br)c2c1ncn2[C@@H]1C[C@H](O)[C@@H](O)[C@H]1O
Activity [1]: inactive | Activity [2]: inactive | Activity [3]: inactive | Activity [4]: inactive | Activity [5]: inactive | selectivity ratio [6]: > 100 | selectivity ratio [7]: > 2630 | selectivity ratio [8]: > 454 | selectivity ratio [9]: > 175 | Activity [10]: inactive | MCC [11]: > 8 µM | MCC [12]: > 200 µM | CC50 [13]: > 273 µM | Activity [14]: inactive | CC50 [15]: > 10 µM | CC50 [16]: > 273 µM | CC50 [17]: > 300 µM | pEC50 [18]: 4.57 | pEC50 [19]: 6.96 | pEC50 [20]: 5.80 | pEC50 [21]: < 3.56 | pEC50 [22]: 5.10 | pEC50 [23]: 7.66 | pEC50 [24]: < 3.70 | pEC50 [25]: 4.62 | pEC50 [26]: 5.77 | pEC50 [27]: < 5.10 | Activity [28]: inactive | Activity [29]: inactive | Activity [30]: inactive | Activity [31]: inactive | Activity [32]: inactive | Activity [33]: inactive | Activity [34]: inactive | Activity [35]: inactive | Activity [36]: inactive | Activity [37]: inactive | Activity [38]: inactive | Activity [39]: inactive

Nc1ncc(Cl)c2c1ncn2[C@@H]1C[C@H](O)[C@@H](O)[C@H]1O
Activity [1]: inactive | Activity [2]: inactive | Activity [3]: inactive | Activity [4]: inactive | Activity [5]: inactive | selectivity ratio [40]: > 77 | selectivity ratio [6]: > 500 | selectivity ratio [41]: > 1730 | Activity [10]: inactive | MCC [11]: > 200 µM | MCC [12]: > 100 µM | CC50 [13]: > 311 µM | Activity [14]: inactive | CC50 [15]: > 300 µM | CC50 [16]: 311 µM | CC50 [17]: > 300 µM | pEC50 [18]: 6.21 | pEC50 [42]: 5.40 | pEC50 [19]: < 3.52 | pEC50 [20]: 5.80 | pEC50 [21]: 6.74 | pEC50 [22]: 5.80 | pEC50 [23]: < 5.00 | pEC50 [24]: 5.10 | pEC50 [25]: 3.92 | pEC50 [27]: 4.62 | Activity [28]: inactive | Activity [29]: inactive | Activity [30]: inactive | Activity [31]: inactive | Activity [32]: inactive | Activity [33]: inactive | Activity [34]: inactive | Activity [35]: inactive | Activity [36]: inactive | Activity [37]: inactive | Activity [38]: inactive | Activity [39]: inactive

Nc1ncc(I)c2c1ncn2[C@@H]1C[C@H](O)[C@@H](O)[C@H]1O
Activity [1]: inactive | Activity [2]: inactive | Activity [3]: inactive | Activity [4]: inactive | Activity [5]: inactive | selectivity ratio [40]: > 6 | selectivity ratio [6]: > 111 | selectivity ratio [41]: 23 | selectivity ratio [7]: < 3.4 | selectivity ratio [8]: > 370 | selectivity ratio [9]: 182 | Activity [10]: inactive | MCC [11]: 100 µM | MCC [12]: > 100 µM | CC50 [13]: > 242 µM | Activity [14]: inactive | CC50 [15]: > 300 µM | CC50 [16]: 67 µM | CC50 [17]: 201 µM | pEC50 [18]: 5.66 | pEC50 [42]: 4.36 | pEC50 [19]: < 4.22 | pEC50 [20]: 5.40 | pEC50 [21]: 5.54 | pEC50 [22]: 4.70 | pEC50 [23]: 6.09 | pEC50 [24]: 5.40 | pEC50 [25]: 5.40 | pEC50 [26]: 5.92 | pEC50 [27]: < 4.70 | Activity [28]: inactive | Activity [29]: inactive | Activity [30]: inactive | Activity [31]: inactive | Activity [32]: inactive | Activity [33]: inactive | Activity [34]: inactive | Activity [35]: inactive | Activity [36]: inactive | Activity [37]: inactive | Activity [38]: inactive | Activity [39]: inactive

Cc1cnc(N)c2ncn([C@@H]3C[C@H](O)[C@@H](O)[C@H]3O)c12
Activity [1]: inactive | Activity [2]: inactive | Activity [3]: inactive | Activity [4]: inactive | Activity [5]: inactive | Activity [10]: inactive | Activity [14]: inactive | Activity [18]: inactive | Activity [42]: inactive | Activity [19]: inactive | Activity [20]: inactive | Activity [21]: inactive | Activity [22]: inactive | Activity [23]: inactive | Activity [24]: inactive | Activity [25]: inactive | Activity [26]: inactive | Activity [27]: inactive | Activity [28]: inactive | Activity [29]: inactive | Activity [30]: inactive | Activity [31]: inactive | Activity [32]: inactive | Activity [33]: inactive | Activity [34]: inactive | Activity [35]: inactive | Activity [36]: inactive | Activity [37]: inactive | Activity [38]: inactive | Activity [39]: inactive
